Test results published in ChEMBL document CHEMBL1139023, “The reversed binding of beta-phenethylamine inhibitors of DPP-IV: X-ray structures and properties of novel fragment and elaborated inhibitors” (Bioorg Med Chem Lett, 2006).

Experiments:
Dipeptidyl peptidase 4 [1] = target: Dipeptidyl peptidase 4 (Sus scrofa, UniProt P22411); test: (§1) Inhibition of DPP4 by continuous fluorimetric assay
Dipeptidyl peptidase 4 [2] = target: Dipeptidyl peptidase 4 (Homo sapiens, UniProt P27487); test: as §1
Sequence of Dipeptidyl peptidase 4 (Homo sapiens, UniProt P27487) (P27487 whole entry): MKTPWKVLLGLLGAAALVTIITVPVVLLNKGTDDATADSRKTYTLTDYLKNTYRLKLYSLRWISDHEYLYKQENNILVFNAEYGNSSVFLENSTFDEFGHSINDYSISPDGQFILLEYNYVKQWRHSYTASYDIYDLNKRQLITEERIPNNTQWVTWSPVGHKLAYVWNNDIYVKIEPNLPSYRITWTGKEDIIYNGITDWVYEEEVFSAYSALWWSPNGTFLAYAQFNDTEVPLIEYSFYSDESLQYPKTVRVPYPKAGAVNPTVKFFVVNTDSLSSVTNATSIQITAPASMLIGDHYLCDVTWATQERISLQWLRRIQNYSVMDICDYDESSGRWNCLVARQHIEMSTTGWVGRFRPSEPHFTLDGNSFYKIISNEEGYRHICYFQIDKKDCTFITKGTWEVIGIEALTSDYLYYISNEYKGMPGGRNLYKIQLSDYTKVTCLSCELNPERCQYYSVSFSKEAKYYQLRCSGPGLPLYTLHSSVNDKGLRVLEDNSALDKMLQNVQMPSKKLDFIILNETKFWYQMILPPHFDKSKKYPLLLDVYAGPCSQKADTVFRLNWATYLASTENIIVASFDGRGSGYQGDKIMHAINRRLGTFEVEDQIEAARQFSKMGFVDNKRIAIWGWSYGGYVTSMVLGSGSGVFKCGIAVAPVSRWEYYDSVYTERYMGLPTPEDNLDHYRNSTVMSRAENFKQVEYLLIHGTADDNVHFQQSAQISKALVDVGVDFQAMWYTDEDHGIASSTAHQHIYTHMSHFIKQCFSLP

[3] = target: Dipeptidyl peptidase 4 (Sus scrofa) (UniProt P22411); test: Inhibition of DPP4 by continuous fluorimetric assay at 100 nM
Sequence of Dipeptidyl peptidase 4 (Sus scrofa) (P22411 whole entry, looked up): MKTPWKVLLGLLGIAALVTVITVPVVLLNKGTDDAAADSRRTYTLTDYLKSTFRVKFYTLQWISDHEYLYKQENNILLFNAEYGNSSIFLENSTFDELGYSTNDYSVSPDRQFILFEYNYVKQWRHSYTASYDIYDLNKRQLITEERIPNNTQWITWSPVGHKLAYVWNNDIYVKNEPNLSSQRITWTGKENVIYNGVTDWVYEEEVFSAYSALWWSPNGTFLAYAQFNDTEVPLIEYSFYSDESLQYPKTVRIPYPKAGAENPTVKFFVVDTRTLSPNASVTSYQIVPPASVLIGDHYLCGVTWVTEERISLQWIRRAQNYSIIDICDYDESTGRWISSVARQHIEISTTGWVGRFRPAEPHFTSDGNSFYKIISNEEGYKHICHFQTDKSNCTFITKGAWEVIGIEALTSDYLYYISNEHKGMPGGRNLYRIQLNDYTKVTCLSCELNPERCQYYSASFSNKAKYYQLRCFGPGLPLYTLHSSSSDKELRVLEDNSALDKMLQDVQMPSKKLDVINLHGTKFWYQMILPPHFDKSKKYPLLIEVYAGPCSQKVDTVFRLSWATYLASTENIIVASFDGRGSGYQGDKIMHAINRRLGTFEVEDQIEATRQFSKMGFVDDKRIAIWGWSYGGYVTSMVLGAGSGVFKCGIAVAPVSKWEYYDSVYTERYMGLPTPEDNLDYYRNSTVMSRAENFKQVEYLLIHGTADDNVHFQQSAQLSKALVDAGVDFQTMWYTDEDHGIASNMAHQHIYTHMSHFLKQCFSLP

Sequence of Dipeptidyl peptidase 4 (Sus scrofa, UniProt P22411) (P22411 whole entry): as the sequence (P22411 whole entry, looked up) above

IC50 (Dipeptidyl peptidase 4 [1]) | IC50 (Dipeptidyl peptidase 4 [2]) | inhibition [3] | Compound
0.41 µM | – | – | N[C@@H](CC(=O)N1CCC[C@H]1CNC(=O)c1ccccc1)Cc1ccccc1F
46 µM | – | – | NCC(c1ccccc1Cl)N1CCOCC1 (stereo not given)
30 µM | – | – | NCC1(c2ccccc2)CCCC1
– | 0.023 µM | 60% | NC(=O)[C@@H]1Cc2ccccc2CN1C(=O)C[C@H](N)Cc1ccccc1F
